What was measured:
[1] = system: SUMO1; assay: SUMO1 target engagement in colon cancer PDX mice; format: in vivo; conditions: intraperitoneal once per day for 3 days, dose-dependent
[2] = system: SUMO1 mRNA; assay: SUMO1 mRNA expression in LN229 cells; format: cell-based, human; conditions: LN229 cancer cells
[3] = system: SUMO1-CDK6, SUMO1-RanGAP1, and SUMO3-RanGAP1 conjugation; assay: In vitro sumoylation assay; format: biochemical; conditions: CDK6 and RanGap1 as substrates
[4] = system: NSCLC A549 and colon cancer HCT116 xenografts; assay: Cancer cell line-derived subcutaneous xenografts; format: in vivo, mice; conditions: intraperitoneal, once per day for 14 days
[5] = system: human colon, breast carcinoma, and NSCLC PDXs; assay: Cancer PDX mouse models, tumor progression and survival; format: in vivo, mice; conditions: for progression of PDXs: intraperitoneal, once per day for 14 days
[6] = system: LN229-derived brain xenografts; assay: LN229-derived intracranial brain xenografts, survival; format: in vivo, mice; conditions: intraperitoneal, once per day for 14 days; Kaplan-Meier
[7] = system: SUMO1; assay: Western and dot blots for SUMO1 in LN229 cells; format: cell-based, human; conditions: 72 hours
[8] = Microsomal stability; format: in vitro ADME, mouse; conditions: 1 μM, 45 min, LC-MS
[9] = Oral and intravenous PK of suspension; format: in vivo, rodents; conditions: administered as a suspension
[10] = system: SUMO1; assay: Western and dot blots for SUMO1 in HCT116 cells; format: cell-based, human; conditions: gradually over about 24 hours
[11] = molecular target: adenosine A2A (Homo sapiens, UniProt P29274); assay: LeadProfilingScreen selectivity profiling; format: binding; conditions: 10 μM
Sequence of adenosine A2A (P29274 whole entry): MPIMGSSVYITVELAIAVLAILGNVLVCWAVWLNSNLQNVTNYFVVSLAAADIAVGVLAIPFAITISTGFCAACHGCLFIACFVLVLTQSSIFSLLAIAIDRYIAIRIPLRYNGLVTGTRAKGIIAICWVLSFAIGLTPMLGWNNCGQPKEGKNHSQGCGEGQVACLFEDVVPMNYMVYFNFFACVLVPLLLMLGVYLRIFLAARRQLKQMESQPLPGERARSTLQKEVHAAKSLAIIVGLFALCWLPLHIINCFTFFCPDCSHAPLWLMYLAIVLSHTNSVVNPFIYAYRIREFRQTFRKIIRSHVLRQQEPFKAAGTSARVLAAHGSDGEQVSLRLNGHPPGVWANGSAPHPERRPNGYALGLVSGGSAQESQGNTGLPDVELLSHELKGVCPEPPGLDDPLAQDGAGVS

[12] = molecular target: 5-hydroxytryptamine receptor 2B (5-HT2B) (Homo sapiens, UniProt P41595); assay: LeadProfilingScreen selectivity profiling; format: binding; conditions: 10 μM
Sequence of 5-hydroxytryptamine receptor 2B (5-HT2B) (P41595 whole entry): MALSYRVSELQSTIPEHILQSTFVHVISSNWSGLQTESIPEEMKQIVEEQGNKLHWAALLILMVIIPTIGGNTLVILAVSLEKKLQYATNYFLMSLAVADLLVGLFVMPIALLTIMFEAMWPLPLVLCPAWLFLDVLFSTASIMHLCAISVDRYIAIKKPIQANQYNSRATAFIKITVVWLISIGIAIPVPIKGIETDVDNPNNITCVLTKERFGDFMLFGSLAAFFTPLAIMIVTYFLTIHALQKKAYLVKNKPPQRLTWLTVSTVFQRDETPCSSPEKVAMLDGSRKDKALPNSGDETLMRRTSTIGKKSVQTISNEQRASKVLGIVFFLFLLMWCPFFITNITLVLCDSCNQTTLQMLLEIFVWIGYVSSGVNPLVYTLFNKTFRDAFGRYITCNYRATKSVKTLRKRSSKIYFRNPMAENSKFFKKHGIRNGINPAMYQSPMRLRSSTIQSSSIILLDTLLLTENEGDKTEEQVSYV

[13] = Microsomal stability; format: in vitro ADME, human; conditions: 1 μM, 45 min, LC-MS
[14] = system: matched normal lung, colon, breast and brain cells; assay: Cell viability, matched normal cells; format: cell-based, human; conditions: compared to cancer cell lines
[15] = Intraperitoneal PK, plasma and brain; format: in vivo, NOD/SCID mice; conditions: intraperitoneal injection 20 mg/kg, mice
[16] = molecular target: histamine H2 (Homo sapiens, UniProt P25021); assay: LeadProfilingScreen selectivity profiling; format: binding; conditions: 10 μM
Sequence of histamine H2 (P25021 whole entry): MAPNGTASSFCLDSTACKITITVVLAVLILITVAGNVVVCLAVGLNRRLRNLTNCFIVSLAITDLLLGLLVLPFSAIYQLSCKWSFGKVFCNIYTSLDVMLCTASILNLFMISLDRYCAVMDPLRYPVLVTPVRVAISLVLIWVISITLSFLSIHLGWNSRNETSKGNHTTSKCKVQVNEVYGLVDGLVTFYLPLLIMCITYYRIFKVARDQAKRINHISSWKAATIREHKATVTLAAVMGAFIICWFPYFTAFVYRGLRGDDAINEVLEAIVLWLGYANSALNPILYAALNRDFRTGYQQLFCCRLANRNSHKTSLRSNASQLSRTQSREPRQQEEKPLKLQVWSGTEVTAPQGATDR

[17] = Oral PK of solution formulation; format: in vivo; conditions: rat
[18] = system: cancer cells; assay: Caspase-3/7 activation and caspase-3 cleavage; format: cell-based, human; conditions: caspase-3 cleavage
[19] = molecular target: human ether-a-go-go–related gene (Homo sapiens, UniProt Q12809); assay: LeadProfilingScreen selectivity profiling; format: binding; conditions: 10 μM
Sequence of human ether-a-go-go–related gene (Q12809 whole entry): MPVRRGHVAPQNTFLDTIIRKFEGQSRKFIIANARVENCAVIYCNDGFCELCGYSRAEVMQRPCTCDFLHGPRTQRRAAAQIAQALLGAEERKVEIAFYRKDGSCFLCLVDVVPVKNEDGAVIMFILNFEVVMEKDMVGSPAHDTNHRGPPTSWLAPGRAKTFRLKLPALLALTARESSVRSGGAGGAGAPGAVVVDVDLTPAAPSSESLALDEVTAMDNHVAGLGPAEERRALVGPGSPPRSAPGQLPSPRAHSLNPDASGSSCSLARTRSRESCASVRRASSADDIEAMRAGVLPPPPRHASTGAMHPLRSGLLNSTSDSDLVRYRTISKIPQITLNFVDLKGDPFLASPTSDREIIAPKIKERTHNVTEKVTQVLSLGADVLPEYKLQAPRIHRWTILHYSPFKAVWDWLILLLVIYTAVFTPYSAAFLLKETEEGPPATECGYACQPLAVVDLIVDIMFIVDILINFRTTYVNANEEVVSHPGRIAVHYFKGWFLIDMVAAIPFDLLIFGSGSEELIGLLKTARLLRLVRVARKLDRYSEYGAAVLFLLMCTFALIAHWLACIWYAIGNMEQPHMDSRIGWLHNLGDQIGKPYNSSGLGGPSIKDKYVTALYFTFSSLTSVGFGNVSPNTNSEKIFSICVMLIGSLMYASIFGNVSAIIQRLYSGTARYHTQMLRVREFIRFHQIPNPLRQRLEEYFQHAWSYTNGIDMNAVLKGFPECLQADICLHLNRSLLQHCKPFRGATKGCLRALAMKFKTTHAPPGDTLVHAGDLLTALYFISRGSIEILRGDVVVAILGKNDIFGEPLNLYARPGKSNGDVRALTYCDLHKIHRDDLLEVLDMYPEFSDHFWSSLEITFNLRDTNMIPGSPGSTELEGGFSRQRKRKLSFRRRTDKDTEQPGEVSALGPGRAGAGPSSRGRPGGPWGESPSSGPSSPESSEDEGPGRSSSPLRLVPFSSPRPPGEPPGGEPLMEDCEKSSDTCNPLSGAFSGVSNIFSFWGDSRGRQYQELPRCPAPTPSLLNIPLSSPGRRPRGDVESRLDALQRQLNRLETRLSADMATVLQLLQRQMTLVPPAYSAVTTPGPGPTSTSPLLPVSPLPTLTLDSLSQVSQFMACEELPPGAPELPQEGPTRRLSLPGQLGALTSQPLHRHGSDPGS

[20] = system: SUMO1; assay: Western blots for SUMO1 in normal lung epithelial cells; format: cell-based, human; conditions: 72 hours; compared to lung cancer cells
[21] = molecular target: T1, cellular CAPRIN1 (Homo sapiens, UniProt Q14444); assay: HB007-biotin pull-down competition with cell lysates, immunoblot; format: binding; conditions: free compound added to cell lysates
T1 sequence (Q14444 1-709): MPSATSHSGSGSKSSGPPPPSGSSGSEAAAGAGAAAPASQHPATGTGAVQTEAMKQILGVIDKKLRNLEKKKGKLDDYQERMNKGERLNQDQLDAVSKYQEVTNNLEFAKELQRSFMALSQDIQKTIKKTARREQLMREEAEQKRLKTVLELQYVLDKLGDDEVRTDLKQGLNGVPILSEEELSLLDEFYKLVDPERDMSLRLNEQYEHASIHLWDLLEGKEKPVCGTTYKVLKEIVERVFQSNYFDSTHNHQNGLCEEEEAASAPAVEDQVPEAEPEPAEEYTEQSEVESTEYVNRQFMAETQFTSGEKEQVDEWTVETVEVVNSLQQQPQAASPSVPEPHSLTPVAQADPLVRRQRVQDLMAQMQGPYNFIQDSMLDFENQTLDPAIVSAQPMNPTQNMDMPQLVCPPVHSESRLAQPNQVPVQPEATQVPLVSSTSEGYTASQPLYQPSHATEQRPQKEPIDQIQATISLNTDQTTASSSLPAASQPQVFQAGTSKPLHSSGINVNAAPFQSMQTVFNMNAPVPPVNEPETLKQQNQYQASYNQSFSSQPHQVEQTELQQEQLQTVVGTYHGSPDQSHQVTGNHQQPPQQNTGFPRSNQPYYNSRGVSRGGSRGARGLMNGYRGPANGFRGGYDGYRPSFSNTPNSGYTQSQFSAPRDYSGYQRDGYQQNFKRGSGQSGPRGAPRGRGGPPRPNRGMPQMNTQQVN

[22] = system: kinases, ion channels, NHRs, enzymes; assay: LeadProfilingScreen selectivity profiling; format: binding, human; conditions: 10 μM
[23] = system: cytochrome P450s (2C9, 2D6, and 3A4); assay: CYP inhibition in human liver microsomes; format: in vitro ADME; conditions: 10 μM

O=C(Nc1ccc(Cl)c([N+](=O)[O-])c1)Nc1nc2ccccc2s1 [CPD1, 1-(1,3-benzothiazol-2-yl)-3-(4-chloro-3-nitrophenyl)urea]
effect on SUMO1 protein in xenograft tissues [1]: markedly reduced both the total amounts and conjugate SUMO1 but not SUMO2/3 protein
effect on SUMO1 mRNA expression [2]: no effects
effect on in vitro SUMO conjugation [3]: no effects
xenograft growth [4]: suppressed xenograft growth
progression of PDXs [5]: effectively suppressed the progression
survival of brain xenograft-bearing mice [6]: increased the survival
effect on SUMO1 and SUMO2/3 protein amounts [7]: reduced the conjugated and unconjugated forms and total amounts of SUMO1 but not SUMO2/3 protein

N#Cc1ccc2nc(NC(=O)Nc3cccc(Cl)c3)sc2c1 [HB007]
metabolic stability in mouse liver microsomes [8]: sufficiently stable
effect on SUMO1 protein in xenograft tissues [1]: markedly reduced both the total amounts and conjugate SUMO1 but not SUMO2/3 protein
plasma concentrations after oral and intravenous administration [9]: low plasma concentrations
effect on SUMO1 and SUMO2/3 protein amounts [10]: reduced the conjugated and total amounts of SUMO1 but not SUMO2/3 protein
xenograft growth [4]: suppressed xenograft growth
survival of PDX mice ([5]; BRCA1 mutant breast carcinoma and primary or metastatic colon carcinoma PDX): increased the survival
progression of PDXs [5]: effectively suppressed the progression
inhibition of adenosine A2A [11]: some inhibition
inhibition of 5-HT2B [12]: some inhibition
metabolic stability in human liver microsomes [13]: sufficiently stable
growth inhibition of matched normal cells [14]: much lower growth inhibition effects
brain-to-plasma partition coefficient [15]: 0.57
inhibition of histamine H2 [16]: some inhibition
oral bioavailability in plasma [17]: up to 82%
induction of apoptotic cell death [18]: did not induce apoptotic cell death
activity against human ether-a-go-go–related gene [19]: no activity
effect on conjugated and total SUMO1 in normal lung epithelial cells [20]: no effects
competitive inhibition of binding of cellular CAPRIN1 to HB007-linked biotin [21]: competitively blocked
activity against kinases, ion channels, NHRs, enzymes [22]: no activity
inhibition of CYP enzymes [23]: did not inhibit

O=C(Nc1ccc(Cl)cc1)Nc1nc2ccccc2s1 [compound 789482, reference compound]
competitive inhibition of binding of cellular CAPRIN1 to HB007-linked biotin [21]: failed to competitively inhibit

O=[N+]([O-])c1cccc2nc(Nc3ccc(Cl)cc3)sc12 [compound 11208948, reference compound]
competitive inhibition of binding of cellular CAPRIN1 to HB007-linked biotin [21]: failed to competitively inhibit
